Patent publication US20260103485A1, “COMPOUND BASED ON OXIDATIVE STRESS AND ANTI-AMYLOID AGGREGATION MECHANISM, PREPARATION METHOD THEREFOR AND USE THEREOF” (SHENZHEN RAYTONE PHARMACEUTICAL CO., LTD, priority 2022, published 2026)
“Also recorded” adds a separate entry of the source.

Experiments:
[1] = test system: sodium selenite-induced New Zealand rabbit cataract model; assay: Pharmacodynamic study on sodium selenite-induced New Zealand rabbit cataract model (slit lamp lens opacity grading); assay type: in vivo; details: 1.5% (w/w) eye drops; for Number of lenses with lens opacity grade III: Grade III: translucent lens nucleus; for Number of lenses with lens opacity grade IV: Grade IV: opacity of lens nucleus not involving cortex; for Effect compared with the core fragment compound c (Gc) group / Effect compared with the core fragment compound d (Gd) group / Effect compared with the model group (MG): chi-square test, p<0.05; for Therapeutic effect on the sodium selenite-induced cataract model: conclusion; for Number of lenses with lens opacity grade I: Grade I: vacuoles in periphery or anterior cortex of lens; for Number of lenses with lens opacity grade II: Grade II: slightly increased density of lens nucleus
Protocol: Neonatal New Zealand rabbits were P7 days old in ordinary grade, and 5 baby rabbits per litter were breastfed with one mother rabbit.
The young rabbits were randomly divided into 6 groups with 5 rabbits in each group. • 1) Normal control group (CG): Normal feeding. • 2) Disease model group (MG): At day P10, young rabbits were injected subcutaneously with sodium selenite solution (in normal saline) at 20 μmol/kg body weight. After day P15, normal saline eye drops were dripped into the left eye 3 times a day for 30 consecutive days. • 3) Compound 1 group (group 1, G1): At day P10, young rabbits were injected subcutaneously with sodium selenite solution (in normal saline) at 20 μmol/kg body weight. After day P15, 1.5% (w/w) compound 1 eye drops were dripped into the left eye 3 times a day for 30 consecutive days. • 4) Compound 2 group (group 2, G2): At day P10, young rabbits were injected subcutaneously with sodium selenite solution (in normal saline) at 20 μmol/kg body weight of. After day P15, 1.5% (w/w) compound 2 eye drops were dripped into the left eye 3 times a day for 30 consecutive days. • 5) Compound c group (group c, Gc): At day P10, young rabbits were injected subcutaneously with sodium selenite solution (in normal saline) at 20 μmol/kg body weight. After day P15, 1.5% (w/w) compound c eye drops were dripped into the left eye 3 times a day for 30 consecutive days. • 6) 3,3′-dithiodipropionic acid group (group d, Gd): At day P10, young rabbits were injected subcutaneously with sodium selenite solution (in normal saline) at 20 μmol/kg body weight. After day P15, 1.5% (w/w) 3,3′-dithiodipropionic acid eye drops were dripped into the left eye 3 times a day for 30 consecutive days.
Slit lamp observation: Slit lamp observation was performed on each group of sodium selenite-induced neonatal New Zealand rabbits before the administration, and 7 days, 14 days, and 30 days after the administration respectively, and the degree of lens opacity was graded to determine the therapeutic effect. Lens opacity grading standard [Hiraoka T, Clark J I. Inhibition of lens opacification during the early stages of cataract formation[J].

[2] = test system: mice presbyopia model; assay: Pharmacodynamic study on mice presbyopia model (lens thickness deformation under fixed pressure); assay type: in vivo, Mice (C57BL/6J); details: 1.5% (w/w) eye drops; for Lens thickness (deformation): 8 months old C57BL/6J mice, left eye, 3 times a day, 45 consecutive days, micrometer screw after fixed pressure, 5 lenses; for Therapeutic effect on elastic recovery of aged mice: conclusion, 45 days
Text: Mice (8 months old, C57BL/6J), normal grade.
The mice were randomly divided into 4 groups with 5 mice in each group. • 1) Model group (MG): normal saline eye drops were dripped into the left eye for 45 consecutive days, 3 times a day. • 2) Compound 1 Group (group 1, G1): 1.5% (w/w) compound 1 eye drops were dripped into the left eye for 45 consecutive days, 3 times a day. • 3) Compound 2 Group (group 2, G2): 1.5% (w/w) compound 2 eye drops were dripped into the left eye for 45 consecutive days, 3 times a day. • 4) 3,3′-dithiodipropionic acid group (group d, Gd): 1.5% (w/w) 3,3′-dithiodipropionic acid eye drops were dripped into the left eye for 45 consecutive days, 3 times a day.
Measurement of lens thickness deformation: After 45 consecutive days of eye dripping, mice were euthanized with carbon dioxide and flushed with saline. Lens thickness was measured using a micrometer screw after applying a fixed pressure.

[3] = of 5 lenses, left eye, 3 times a day, 30 consecutive days

| Compound | Number of lenses with lens opacity grade III [1, 3] | Number of lenses with lens opacity grade IV [1, 3] | Number of lenses with lens opacity grade V ([1]; of 5 lenses, left eye, 3 times a day, 30 consecutive days, Grade V: opacity of lens nucleus and perinuclear cortex) | Number of lenses with lens opacity grade VI ([1]; of 5 lenses, left eye, 3 times a day, 30 consecutive days, Grade VI: complete opacity of lens) | Lens thickness (deformation) [2] | Effect compared with the core fragment compound c (Gc) group [1] | Effect compared with the core fragment compound d (Gd) group [1] | Effect compared with the model group (MG) [1] | Therapeutic effect on the sodium selenite-induced cataract model [1] | Number of lenses with lens opacity grade I [1, 3] | Number of lenses with lens opacity grade II [1, 3] | Therapeutic effect on elastic recovery of aged mice [2] | Therapeutic effect on elastic recovery of aged mice ([2]; listed as G1) |
| --- | --- | --- | --- | --- | --- | --- | --- | --- | --- | --- | --- | --- | --- |
| O=C(O)CCSSCCC(=O)O [3,3′-dithiodipropionic acid, reference compound] | 1 | 2 | 1 | 1 | 1.55 ± 0.01 | – | – | – | – | – | – | – | – |
| C[C@H](CCCC(C)(C)O)C1CC[C@@]2(C)C3=C(CC[C@]12C)[C@@]1(C)CC[C@H](OC(=O)CCSSCCC(=O)O)C(C)(C)[C@@H]1CC3 (stereo partly drawn) [Compound 1] | 1 | 1 | – | – | 1.42 ± 0.03 | significantly superior | significantly superior | significantly superior | significant therapeutic effects | 1 | 2 | significant therapeutic effects | most significant effect |
| C[C@H](CCCC(C)(C)OC(=O)CCSSCCC(=O)O)[C@H]1CC[C@@]2(C)C3=C(CC[C@]12C)[C@@]1(C)CC[C@H](OC(=O)CCSSCCC(=O)O)C(C)(C)[C@@H]1CC3 [Compound 2] | 1 | – | – | – | 1.51 ± 0.02 | significantly superior | significantly superior | significantly superior | significant therapeutic effects; also recorded: best therapeutic effect | 3 | 1 | significant therapeutic effects | – |
| C[C@H](CCCC(C)(C)O)[C@H]1CC[C@@]2(C)C3=C(CC[C@]12C)[C@@]1(C)CC[C@H](O)C(C)(C)[C@@H]1CC3 [Compound c, reference compound] | 3 | – | – | – | – | – | – | – | – | – | 2 | – | – |
